Test results taken from PubChem BioAssay (NCI).
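Abbreviation: GI50, concentration required for 50% inhibition of growth. TGI: total growth inhibition.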

Experiments:
Assay in all cases: NCI tumour cell line growth inhibition, 384-well format
786-0 renal = system: 786-0 renal
A498 renal = system: A498 renal
A549 NSCLC = system: A549 NSCLC
ACHN renal = system: ACHN renal
BT-549 breast = system: BT-549 breast
CAKI-1 renal = system: CAKI-1 renal
CCRF-CEM leukemia = system: CCRF-CEM leukemia
DU-145 prostate = system: DU-145 prostate
EKVX NSCLC = system: EKVX NSCLC
HCT-116 colon = system: HCT-116 colon
HCT-15 colon = system: HCT-15 colon
HL-60(TB) leukemia = system: HL-60(TB) leukemia
HOP-62 NSCLC = system: HOP-62 NSCLC
HOP-92 NSCLC = system: HOP-92 NSCLC
HS 578T breast = system: HS 578T breast
HT29 colon = system: HT29 colon
IGROV1 ovarian = system: IGROV1 ovarian
K-562 leukemia = system: K-562 leukemia
KM12 colon = system: KM12 colon
LOX IMVI melanoma = system: LOX IMVI melanoma
M14 melanoma = system: M14 melanoma
MALME-3M melanoma = system: MALME-3M melanoma
MCF7 breast = system: MCF7 breast
MDA-MB-231 breast = system: MDA-MB-231 breast
MDA-MB-435 melanoma = system: MDA-MB-435 melanoma
MDA-MB-468 breast = system: MDA-MB-468 breast
MOLT-4 leukemia = system: MOLT-4 leukemia
NCI-H226 lung = system: NCI-H226 lung
NCI-H23 lung = system: NCI-H23 lung
NCI-H322M lung = system: NCI-H322M lung
NCI-H522 lung = system: NCI-H522 lung
NCI/ADR-RES ovarian = system: NCI/ADR-RES ovarian
OVCAR-3 ovarian = system: OVCAR-3 ovarian
OVCAR-4 ovarian = system: OVCAR-4 ovarian
OVCAR-5 ovarian = system: OVCAR-5 ovarian
OVCAR-8 ovarian = system: OVCAR-8 ovarian
PC-3 prostate = system: PC-3 prostate
RPMI-8226 leukemia = system: RPMI-8226 leukemia
RXF 393 renal = system: RXF 393 renal
SF-268 CNS = system: SF-268 CNS
SF-295 CNS = system: SF-295 CNS
SF-539 CNS = system: SF-539 CNS
SK-MEL-2 melanoma = system: SK-MEL-2 melanoma
SK-MEL-28 melanoma = system: SK-MEL-28 melanoma
SK-OV-3 ovarian = system: SK-OV-3 ovarian
SN12C renal = system: SN12C renal
SNB-19 CNS = system: SNB-19 CNS
SNB-75 CNS = system: SNB-75 CNS
SW-620 colon = system: SW-620 colon
T-47D breast = system: T-47D breast
TK-10 renal = system: TK-10 renal
U251 glioblastoma = system: U251 glioblastoma
UACC-257 melanoma = system: UACC-257 melanoma
UACC-62 melanoma = system: UACC-62 melanoma
UO-31 renal = system: UO-31 renal

## O=C1CCC(N2C(=O)c3ccccc3C2=O)C(=O)N1 (stereo not given)
786-0 renal
  GI50: > 100 µM
  TGI: > 100 µM
A498 renal
  GI50: > 100 µM
  TGI: > 100 µM
A549 NSCLC
  GI50: > 100 µM
  TGI: > 100 µM
ACHN renal
  GI50: > 100 µM
  TGI: > 100 µM
BT-549 breast
  GI50: > 100 µM
  TGI: > 100 µM
CAKI-1 renal
  GI50: > 100 µM
  TGI: > 100 µM
CCRF-CEM leukemia
  GI50: > 100 µM
  TGI: > 100 µM
DU-145 prostate
  GI50: > 100 µM
  TGI: > 100 µM
EKVX NSCLC
  GI50: > 100 µM
  TGI: > 100 µM
HCT-116 colon
  GI50: > 100 µM
  TGI: > 100 µM
HCT-15 colon
  GI50: > 100 µM
  TGI: > 100 µM
HL-60(TB) leukemia
  GI50: > 100 µM
  TGI: > 100 µM
HOP-62 NSCLC
  GI50: > 100 µM
  TGI: > 100 µM
HOP-92 NSCLC
  GI50: > 100 µM
  TGI: > 100 µM
HS 578T breast
  GI50: > 100 µM
  TGI: > 100 µM
HT29 colon
  GI50: > 100 µM
  TGI: > 100 µM
IGROV1 ovarian
  GI50: > 100 µM
  TGI: > 100 µM
K-562 leukemia
  GI50: > 100 µM
  TGI: > 100 µM
KM12 colon
  GI50: > 100 µM
  TGI: > 100 µM
LOX IMVI melanoma
  GI50: > 100 µM
  TGI: > 100 µM
M14 melanoma
  GI50: > 100 µM
  TGI: > 100 µM
MALME-3M melanoma
  GI50: > 100 µM
  TGI: > 100 µM
MCF7 breast
  GI50: > 100 µM
  TGI: > 100 µM
MDA-MB-231 breast
  GI50: > 100 µM
  TGI: > 100 µM
MDA-MB-435 melanoma
  GI50: > 100 µM
  TGI: > 100 µM
MDA-MB-468 breast
  GI50: > 100 µM
  TGI: > 100 µM
MOLT-4 leukemia
  GI50: > 100 µM
  TGI: > 100 µM
NCI-H226 lung
  GI50: > 100 µM
  TGI: > 100 µM
NCI-H23 lung
  GI50: > 100 µM
  TGI: > 100 µM
NCI-H322M lung
  GI50: > 100 µM
  TGI: > 100 µM
NCI-H522 lung
  GI50: > 100 µM
  TGI: > 100 µM
NCI/ADR-RES ovarian
  GI50: > 100 µM
  TGI: > 100 µM
OVCAR-3 ovarian
  GI50: > 100 µM
  TGI: > 100 µM
OVCAR-4 ovarian
  GI50: > 100 µM
  TGI: > 100 µM
OVCAR-5 ovarian
  GI50: > 100 µM
  TGI: > 100 µM
OVCAR-8 ovarian
  GI50: > 100 µM
  TGI: > 100 µM
PC-3 prostate
  GI50: > 100 µM
  TGI: > 100 µM
RPMI-8226 leukemia
  GI50: > 100 µM
  TGI: > 100 µM
RXF 393 renal
  GI50: > 100 µM
  TGI: > 100 µM
SF-268 CNS
  GI50: > 100 µM
  TGI: > 100 µM
SF-295 CNS
  GI50: > 100 µM
  TGI: > 100 µM
SF-539 CNS
  GI50: > 100 µM
  TGI: > 100 µM
SK-MEL-2 melanoma
  GI50: > 100 µM
  TGI: > 100 µM
SK-MEL-28 melanoma
  GI50: > 100 µM
  TGI: > 100 µM
SK-OV-3 ovarian
  GI50: > 100 µM
  TGI: > 100 µM
SN12C renal
  GI50: > 100 µM
  TGI: > 100 µM
SNB-19 CNS
  GI50: > 100 µM
  TGI: > 100 µM
SNB-75 CNS
  GI50: > 100 µM
  TGI: > 100 µM
SW-620 colon
  GI50: > 100 µM
  TGI: > 100 µM
T-47D breast
  GI50: > 100 µM
  TGI: > 100 µM
TK-10 renal
  GI50: > 100 µM
  TGI: > 100 µM
U251 glioblastoma
  GI50: > 100 µM
  TGI: > 100 µM
UACC-257 melanoma
  GI50: > 100 µM
  TGI: > 100 µM
UACC-62 melanoma
  GI50: > 100 µM
  TGI: > 100 µM
UO-31 renal
  GI50: > 100 µM
  TGI: > 100 µM
